Experimental data taken from ChEMBL document CHEMBL1201862, “PubChem BioAssay data set” (2004).
Active and inactive are the calls of the source.

Experiments:
Streptococcus = test: Group A Streptococcus viability loss, dose response, counter-screen for streptokinase expression inhibitor project, luminescence, BacTiterGlo (AID 1915); assay type: functional, organism-based;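 also: potency for reduction of bacterial viability or growth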
[1] = molecular target: Nucleotide-binding oligomerization domain-containing protein 2 (Homo sapiens, UniProt Q9HC29); test: NOD2 signaling inhibitors, cell-based, luminescence, uHTS, HEK293 (AID 1566); assay type: functional
Nucleotide-binding oligomerization domain-containing protein 2, sequence (Q9HC29 whole entry, the tested form may be a part): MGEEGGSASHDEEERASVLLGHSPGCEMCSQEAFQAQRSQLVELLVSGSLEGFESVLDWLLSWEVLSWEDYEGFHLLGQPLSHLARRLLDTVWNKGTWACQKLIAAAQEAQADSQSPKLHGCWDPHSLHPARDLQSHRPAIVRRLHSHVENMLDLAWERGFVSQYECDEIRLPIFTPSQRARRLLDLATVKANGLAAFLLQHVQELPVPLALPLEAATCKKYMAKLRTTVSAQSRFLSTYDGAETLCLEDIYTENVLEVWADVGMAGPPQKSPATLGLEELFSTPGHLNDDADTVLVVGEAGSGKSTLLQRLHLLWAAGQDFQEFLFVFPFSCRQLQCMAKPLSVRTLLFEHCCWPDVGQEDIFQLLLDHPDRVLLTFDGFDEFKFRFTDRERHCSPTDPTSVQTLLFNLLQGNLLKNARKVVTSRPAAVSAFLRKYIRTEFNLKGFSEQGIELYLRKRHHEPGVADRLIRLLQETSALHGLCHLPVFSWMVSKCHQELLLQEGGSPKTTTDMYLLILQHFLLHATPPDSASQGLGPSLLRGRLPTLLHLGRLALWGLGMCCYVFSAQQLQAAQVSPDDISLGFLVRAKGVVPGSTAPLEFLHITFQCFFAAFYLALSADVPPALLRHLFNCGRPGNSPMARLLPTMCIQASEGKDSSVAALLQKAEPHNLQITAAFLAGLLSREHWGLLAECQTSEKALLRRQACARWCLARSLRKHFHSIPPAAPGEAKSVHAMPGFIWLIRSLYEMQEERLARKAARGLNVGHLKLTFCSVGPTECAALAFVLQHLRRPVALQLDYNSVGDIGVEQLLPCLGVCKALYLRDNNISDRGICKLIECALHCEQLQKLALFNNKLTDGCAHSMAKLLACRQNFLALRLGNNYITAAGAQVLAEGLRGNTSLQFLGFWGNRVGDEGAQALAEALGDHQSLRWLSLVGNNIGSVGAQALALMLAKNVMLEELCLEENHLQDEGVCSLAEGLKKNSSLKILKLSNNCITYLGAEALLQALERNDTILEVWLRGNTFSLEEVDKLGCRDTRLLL

HEK293 [2] = test: NOD2 signaling inhibitors in MDP-stimulated cells, cell-based, uHTS, luminescence (AID 2001); assay type: functional; details: Homo sapiens
[3] = microbe, parasite or virus in culture; assay type: functional; details: Mycobacterium tuberculosis
[4] = test system: Streptococcus sp. 'group A'; test: growth inhibition of control SK(-) GAS strain, dose response, counter-screen for streptokinase expression inhibitor project, luminescence, kanamycin, BacTiterGlo, confirmation (AID 1900); assay type: functional, organism-based
HEK293 [5] = test: NOD1 signaling inhibitors, primary screen, cell-based, luminescence, uHTS (AID 1578); assay type: functional; details: Homo sapiens
HEK293 [6] = test: cells; assay type: functional, cell-based; details: Homo sapiens
HEK293 [7] = test: cells; assay type: functional, cell-based; details: Homo sapiens; remark: listed apart in the source
HEK293 [8] = test: cells; assay type: functional, cell-based; details: Homo sapiens; remark: listed apart in the source
[9] = molecular target: T1, Replicative DNA helicase DnaB (Mycobacterium tuberculosis, UniProt P9WMR3); test: DnaB intein splicing inhibitors, dose response, biochemical, cell-free fluorescence (AID 449749); assay type: functional
T1 sequence (P9WMR3 whole entry): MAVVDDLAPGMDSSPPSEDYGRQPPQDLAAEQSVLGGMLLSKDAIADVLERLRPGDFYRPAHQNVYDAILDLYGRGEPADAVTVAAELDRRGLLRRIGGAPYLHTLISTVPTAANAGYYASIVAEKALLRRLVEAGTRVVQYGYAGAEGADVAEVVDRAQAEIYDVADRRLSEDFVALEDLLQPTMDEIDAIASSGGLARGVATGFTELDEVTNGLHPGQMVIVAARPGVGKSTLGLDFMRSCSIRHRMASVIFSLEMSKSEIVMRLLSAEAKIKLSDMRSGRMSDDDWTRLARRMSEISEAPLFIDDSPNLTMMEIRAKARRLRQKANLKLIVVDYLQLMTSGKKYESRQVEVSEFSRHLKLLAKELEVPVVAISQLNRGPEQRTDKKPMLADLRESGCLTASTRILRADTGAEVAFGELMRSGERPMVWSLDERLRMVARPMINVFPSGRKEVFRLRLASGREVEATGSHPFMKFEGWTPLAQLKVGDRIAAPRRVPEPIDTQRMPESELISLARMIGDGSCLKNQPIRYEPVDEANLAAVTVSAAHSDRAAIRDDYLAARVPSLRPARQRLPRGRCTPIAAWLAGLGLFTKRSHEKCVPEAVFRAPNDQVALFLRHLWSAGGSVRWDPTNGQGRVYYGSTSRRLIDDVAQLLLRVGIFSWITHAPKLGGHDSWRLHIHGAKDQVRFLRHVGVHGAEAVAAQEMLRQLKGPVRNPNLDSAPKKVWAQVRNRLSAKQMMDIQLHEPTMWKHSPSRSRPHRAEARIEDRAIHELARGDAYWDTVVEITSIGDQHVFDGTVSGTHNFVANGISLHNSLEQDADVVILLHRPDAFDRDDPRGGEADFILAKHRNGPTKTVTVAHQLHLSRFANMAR

Protein RecA = molecular target: T2, Protein RecA (Mycobacterium tuberculosis, UniProt P9WHJ3); test: Fluorescence Cell-Free Homogeneous Dose Retest to Identify Inhibitors of RecA-Intein Splicing Activity. [Related pubchem assays (depositor defined):AID2097, AID2223, AID489010, AID492950]; assay type: functional
T2 sequence (P9WHJ3 whole entry): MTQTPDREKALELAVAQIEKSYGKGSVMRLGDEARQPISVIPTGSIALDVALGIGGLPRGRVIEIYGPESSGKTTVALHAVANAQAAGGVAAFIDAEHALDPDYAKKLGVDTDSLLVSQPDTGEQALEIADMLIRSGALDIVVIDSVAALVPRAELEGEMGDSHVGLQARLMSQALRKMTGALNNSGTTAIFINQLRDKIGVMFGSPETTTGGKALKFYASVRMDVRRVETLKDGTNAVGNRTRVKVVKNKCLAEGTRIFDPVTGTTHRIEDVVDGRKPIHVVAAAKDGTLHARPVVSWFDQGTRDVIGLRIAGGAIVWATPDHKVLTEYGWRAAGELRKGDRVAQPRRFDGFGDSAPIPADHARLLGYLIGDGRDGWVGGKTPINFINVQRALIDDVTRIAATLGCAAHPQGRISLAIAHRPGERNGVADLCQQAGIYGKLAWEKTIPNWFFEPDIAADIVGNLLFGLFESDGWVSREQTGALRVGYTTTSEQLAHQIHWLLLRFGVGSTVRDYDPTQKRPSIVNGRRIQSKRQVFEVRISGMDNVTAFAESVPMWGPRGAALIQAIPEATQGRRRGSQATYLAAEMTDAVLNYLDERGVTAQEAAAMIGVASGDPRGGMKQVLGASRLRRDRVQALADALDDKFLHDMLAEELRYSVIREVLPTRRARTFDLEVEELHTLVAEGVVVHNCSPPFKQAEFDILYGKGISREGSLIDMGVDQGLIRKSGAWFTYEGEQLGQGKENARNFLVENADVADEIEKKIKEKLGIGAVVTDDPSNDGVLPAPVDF

[10] = molecular target: Runt-related transcription factor 1/Core-binding factor subunit beta (Homo sapiens, UniProt Q01196+Q13951); test: Confirmation of compounds inhibiting the binding between the RUNX1 Runt domain and CBFb-SMMHC via a fluorescence resonance energy transfer (FRET) assay. [Related pubchem assays (depositor defined):AID1434, AID1438, AID1496, AID1550, AID1645]; assay type: protein assay
Runt-related transcription factor 1/Core-binding factor subunit beta, sequence (Q01196 whole entry, the tested form may be a part): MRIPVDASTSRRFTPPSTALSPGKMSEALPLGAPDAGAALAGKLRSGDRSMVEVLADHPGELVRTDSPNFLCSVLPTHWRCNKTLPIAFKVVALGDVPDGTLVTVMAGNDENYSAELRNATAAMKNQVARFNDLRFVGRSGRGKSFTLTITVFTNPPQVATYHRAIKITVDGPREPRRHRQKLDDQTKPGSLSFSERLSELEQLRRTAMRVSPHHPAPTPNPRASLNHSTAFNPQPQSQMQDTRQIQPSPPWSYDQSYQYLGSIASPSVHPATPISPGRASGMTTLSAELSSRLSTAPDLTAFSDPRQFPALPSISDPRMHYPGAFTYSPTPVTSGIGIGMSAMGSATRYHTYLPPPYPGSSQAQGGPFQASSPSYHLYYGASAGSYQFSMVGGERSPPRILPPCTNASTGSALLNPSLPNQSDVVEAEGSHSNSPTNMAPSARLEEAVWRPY
Runt-related transcription factor 1/Core-binding factor subunit beta, sequence (Q13951 whole entry, the tested form may be a part): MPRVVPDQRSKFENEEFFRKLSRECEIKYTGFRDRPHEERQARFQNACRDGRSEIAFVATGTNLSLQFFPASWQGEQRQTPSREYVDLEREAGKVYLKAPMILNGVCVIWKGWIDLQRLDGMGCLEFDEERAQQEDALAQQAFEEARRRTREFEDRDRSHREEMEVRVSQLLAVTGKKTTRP

Hexokinase-1 = molecular target: T3, Hexokinase-1 (Homo sapiens, UniProt P19367); test: hexokinase 1 activators, dose response, selectivity assay for HKDC1 activator project, biochemical (AID 504762); assay type: functional
T3 sequence (P19367 whole entry): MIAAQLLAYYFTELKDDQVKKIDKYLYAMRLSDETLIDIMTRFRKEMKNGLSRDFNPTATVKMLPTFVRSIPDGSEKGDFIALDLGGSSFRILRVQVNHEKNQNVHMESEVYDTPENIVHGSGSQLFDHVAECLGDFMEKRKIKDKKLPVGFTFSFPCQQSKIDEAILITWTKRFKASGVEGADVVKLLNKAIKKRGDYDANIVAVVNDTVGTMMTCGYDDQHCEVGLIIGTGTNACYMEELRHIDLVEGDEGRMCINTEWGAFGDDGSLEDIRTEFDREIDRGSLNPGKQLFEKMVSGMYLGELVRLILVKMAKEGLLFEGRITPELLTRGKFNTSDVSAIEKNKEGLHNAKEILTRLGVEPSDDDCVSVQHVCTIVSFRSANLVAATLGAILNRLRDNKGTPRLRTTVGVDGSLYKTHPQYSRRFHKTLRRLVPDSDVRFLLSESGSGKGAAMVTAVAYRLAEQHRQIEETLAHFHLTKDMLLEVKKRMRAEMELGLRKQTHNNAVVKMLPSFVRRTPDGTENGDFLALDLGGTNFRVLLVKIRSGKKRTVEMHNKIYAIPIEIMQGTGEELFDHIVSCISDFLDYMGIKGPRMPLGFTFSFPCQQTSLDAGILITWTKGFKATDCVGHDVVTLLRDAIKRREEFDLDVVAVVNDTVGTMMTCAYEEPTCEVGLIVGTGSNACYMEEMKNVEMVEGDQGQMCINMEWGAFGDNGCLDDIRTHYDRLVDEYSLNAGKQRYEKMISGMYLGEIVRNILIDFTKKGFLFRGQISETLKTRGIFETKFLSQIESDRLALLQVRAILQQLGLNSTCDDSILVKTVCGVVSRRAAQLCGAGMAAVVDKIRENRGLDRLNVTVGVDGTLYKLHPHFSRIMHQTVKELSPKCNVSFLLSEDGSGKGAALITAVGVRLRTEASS

Hexokinase HKDC1 = molecular target: T4, Hexokinase HKDC1 (Homo sapiens, UniProt Q2TB90); test: HKDC1 hexokinase activators, dose response, biochemical, W721R variant (AID 504730); assay type: functional
T4 sequence (Q2TB90 whole entry): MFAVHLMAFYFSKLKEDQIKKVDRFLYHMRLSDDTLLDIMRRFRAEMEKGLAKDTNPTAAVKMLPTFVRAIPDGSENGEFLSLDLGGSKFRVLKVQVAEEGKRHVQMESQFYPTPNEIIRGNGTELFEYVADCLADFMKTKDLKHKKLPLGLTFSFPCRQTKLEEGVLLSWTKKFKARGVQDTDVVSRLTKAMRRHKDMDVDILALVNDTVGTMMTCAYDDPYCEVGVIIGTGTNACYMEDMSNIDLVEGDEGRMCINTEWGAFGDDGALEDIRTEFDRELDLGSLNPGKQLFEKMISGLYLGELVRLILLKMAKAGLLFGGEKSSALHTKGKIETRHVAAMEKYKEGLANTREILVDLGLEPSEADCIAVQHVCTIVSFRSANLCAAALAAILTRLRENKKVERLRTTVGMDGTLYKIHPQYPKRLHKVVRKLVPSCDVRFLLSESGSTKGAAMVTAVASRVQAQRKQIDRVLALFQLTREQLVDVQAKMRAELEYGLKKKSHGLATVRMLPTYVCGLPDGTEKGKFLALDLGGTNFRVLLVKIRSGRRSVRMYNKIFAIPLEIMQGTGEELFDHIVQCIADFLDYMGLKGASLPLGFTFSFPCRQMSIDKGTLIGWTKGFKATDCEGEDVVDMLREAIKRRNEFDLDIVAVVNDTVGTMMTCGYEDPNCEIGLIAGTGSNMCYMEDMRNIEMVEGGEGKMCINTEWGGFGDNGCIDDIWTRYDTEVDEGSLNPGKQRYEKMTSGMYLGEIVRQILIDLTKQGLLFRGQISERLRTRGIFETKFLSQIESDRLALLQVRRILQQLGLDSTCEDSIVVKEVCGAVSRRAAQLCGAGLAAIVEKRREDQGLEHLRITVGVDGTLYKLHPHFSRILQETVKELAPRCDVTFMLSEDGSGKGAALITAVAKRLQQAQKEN

| SMILES | EC50 (Streptococcus) | EC50 [1] | IC50 (HEK293 [2]) | CC50 [3] | EC50 [4] | EC50 (HEK293 [5]) | IC50 (HEK293 [6]) | IC50 (HEK293 [7]) | IC50 (HEK293 [8]) | AC50 [9] | EC50 (Protein RecA) | IC50 [10] | EC50 (Hexokinase-1) | EC50 (Hexokinase HKDC1) |
| --- | --- | --- | --- | --- | --- | --- | --- | --- | --- | --- | --- | --- | --- | --- |
| Nc1nn2c(O)cc(-c3ccccc3)nc2c1N=Nc1ccc2c(c1)OCO2 | 3.77 µM (active) | > 20 µM (inactive) | 14.5 µM (inactive) | 29.9 µM (active) | 2.16 µM (active) | 18.4 µM (active) | 19 µM (active) | > 20 µM (inactive) | > 20 µM (inactive) |  |  |  |  |  |
| O=C(CCl)Nc1c2c(nn1-c1ccccc1)CSC2 |  | > 20 µM (inactive) | 15.1 µM (inactive) |  |  | 3.07 µM (active) | > 20 µM (inactive) | > 20 µM (inactive) | 8.63 µM (active) | 60.5 µM (active) | 11.4 µM (active) |  |  |  |
| O=S(=O)(Nc1ccc(-c2nc3cccnc3s2)cc1)c1ccccc1F |  |  |  |  |  |  |  |  |  |  |  | > 50 µM (inactive) |  |  |
| CC(=O)N1CCN(C2c3cccc4cccc(c34)C2NS(=O)(=O)c2ccccc2)CC1 (stereo not given) |  |  |  |  |  |  |  |  |  |  |  |  | 29.4 µM (inactive) | 48.9 µM (inactive) |
